Data on 9 compounds can be found in patent US20240158339A1, “TYRAMINE CONTAINING HYDROXYCINNAMIC ACID AMIDE DERIVATIVES AND METHODS OF USE THEREOF” (Brightseed, Inc., priority 2018, published 2024).

In general, bioavailability refers to the share of a dose that reaches the circulation, judged against a reference dose that is usually intravenous. Higher therefore signals much systemic uptake.

Structures are written as SMILES. “Also recorded” adds a separate entry of the source.

One data set deals with T1, HNF4α (Homo sapiens, UniProt P41235).
T1 construct: T6PNE cells (Kiselyuk, et al. (2012) Chem. Biol. 19(7):806-818; Kiselyuk, et al. (2010) J. Biomol; endogenous in cells; host or cells: T6PNE cells
T1 sequence (P41235 1-474): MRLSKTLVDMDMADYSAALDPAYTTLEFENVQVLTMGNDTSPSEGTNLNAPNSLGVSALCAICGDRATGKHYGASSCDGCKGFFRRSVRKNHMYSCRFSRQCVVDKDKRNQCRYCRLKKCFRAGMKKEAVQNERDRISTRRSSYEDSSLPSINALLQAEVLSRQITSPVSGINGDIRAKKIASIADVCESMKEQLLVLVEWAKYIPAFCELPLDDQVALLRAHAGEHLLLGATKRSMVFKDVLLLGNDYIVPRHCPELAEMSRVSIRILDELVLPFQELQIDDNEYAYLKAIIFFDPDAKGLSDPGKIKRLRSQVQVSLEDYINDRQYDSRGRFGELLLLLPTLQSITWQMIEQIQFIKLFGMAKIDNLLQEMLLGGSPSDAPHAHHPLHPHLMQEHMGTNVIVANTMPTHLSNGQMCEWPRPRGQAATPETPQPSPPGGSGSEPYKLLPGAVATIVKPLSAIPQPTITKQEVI
Briefly: Insulin promoter activity assay (HNF4α assay) in T6PNE cells. Type of data set: cell-based. Particulars: for HNF4α activation / bioactivity (screening result in words): HNF4α assay, screening and SAR statements. On the procedure:
Insulin Promoter Activity. T6PNE cells (Kiselyuk, et al. (2012) Chem. Biol. 19(7):806-818; Kiselyuk, et al. (2010) J. Biomol. Screen 15(6):663-70) are seeded at 2000 cells per well in 384-well tissue culture plates in the presence of 1 μM tamoxifen and 0.03 mM palmitate. After a 24-hour incubation, a compound of the invention is added to the cells. Forty-eight hours after compound addition, cells are fixed in 4% paraformaldehyde and stained with DAPI. Blue (DAPI) and green (human insulin promoter driving GFP) channels are imaged.
Inhibition of HNF4α GFP Expression. Using the insulin promoter assay described herein, activity of HNF4α was assessed in the presence of BI-6015 (0, 2.5, 5 μM), a known antagonist of HNF4α (Kiselyuk, et al. (2012) Chem. Biol. 19(7):806-818), in combination with N-trans-caffeoyltyramine (0, 5, 10, 20 μM).
Given the role of HNF4α in maintaining a health metabolism in humans, test compounds were screened for activity as HNF4α agonists (either direct or indirect effects). Using a known insulin promoter-reporter assay Kiselyuk and colleagues (2010. J. Biomol. Screen 15(6):663-70) screened a library of compounds for activity to promote insulin activation. […] The OTC promoter is known to be responsive to HNF4α in transient transfection assays (Inoue, et al. (2002) J. Biol. Chem. 277:25257-65).
Plant compounds in the top 10th percentile of similarity to the 18 target structures were selected and compounds predicted to be potential agonists of HNF4α activity given their chemical structural features were screened in the HNF4α assay.

The next data set relates to insulin mRNA. Nature of the data set: Insulin mRNA levels by quantitative PCR. Type of data set: cell-based. Particulars: FIG. 2. As for the experimental part:
(§1) Expression of Insulin and HNF4α. RNA was purified using a RNEASY® chromatographic separation and isolation kits (Qiagen), and converted to cDNA using the gScript™ cDNA SuperMix (Quanta Biosciences). Q-PCR was conducted with cDNA corresponding to 2 μg of RNA using an Opticon Real-Time System (MJ Research) and QPCR SuperMix (BioPioneer). See All mRNA values were normalized to 18S rRNA values and are expressed as fold changes over vehicle-treated control.

The next data set deals with HNF4α mRNA. Briefly: HNF4α mRNA levels by quantitative PCR. Type of data set: cell-based. Particulars: FIG. 3. As for the experimental part: as §1
The test system of the next data set is T6PNE cells. Briefly: Lipid clearance (steatosis assay) in T6PNE cells. Type of data set: cell-based. To be noted: for fat accumulation: T6PNE cells, 0.25 mM palmitate, 10 μM compound. As for the experimental part:
T6PNE cells were pretreated for 1 day with 0.06 mM, 0.12 mM or 0.25 mM palmitate at which time 15 μM N-trans-caffeoyltyramine or control (DMSO) was added. Cells were harvested on day 3, 6 and 8 and subjected to staining with Nile Red and […]. Results are expressed as fold change in Nile Red staining: +palmitate/10% FBS medium (no palmitate).
(§2) Lipid Clearance in HepG2 and T6PNE Cells (Steatosis Assay). The steatosis assay was carried out as described (Kiselyuk, et al. (2012) Chem. Biol. 19(7):806-818) with the exception of the drug concentration, which was 20 μM for N-trans-caffeoyltyramine with 0.25 mM palmitate in HepG2 cell lines, and 10 μM of either N-trans-caffeoyltyramine, N-trans-caffeoyltyramine, or p-coumaroyltyramine, with 0.25 mM palmitate in T6PNE cell lines. Steatosis was assessed using the Oil Red O Method for Fats kits (Poly Scientific; Warrington, PA), per manufacturer's guidelines. Briefly, frozen tissue slides or fixed cells were incubated in neat propylene glycol for 2 minutes and Oil Red O solution for […] for slides or 1 hour for fixed cells, differentiated in 85% propylene glycol solution for 1 minute, washed twice with distilled water and stained in Hematoxylin of 10 seconds. Slides were mounted with glycerin jelly mounting medium.

The nature of the next data set: pH stability assessment. The data set is classed as physicochemical. Particulars: pH 2, 7.4, 8.5 and 10, 37° C., 0.5 vs 72 hours. On the procedure:
pH Stability Assessment. Individual stock solutions were prepared in DMSO at concentrations of 10 mg/mL. Four different buffer solution s were prepared to achieve solutions with a pH of 2, 7.4, 8.5 and 10. For each pH assay, 5 μL of stock solution was added to 245 μL of buffered solution to a 2 mL tube, vortexed and incubated in a 37° C. water bath. At each timepoint, 50 μL aliquots were taken, neutralized and analyzed via HPLC analysis using a DAD detector at 280 nm. The fold change of the peak area at 280 nm was analyzed for the initial and final timepoint, 0.5 and 72 hours, respectively.

A further data set concerns E47MER. Nature of the data set: Counter-screen for estrogenic activity (E47MER luciferase reporter in HeLa cells). The data set is classed as cell-based, human. To be noted: with 1 μM or without tamoxifen, FIG. 5. As for the experimental part: Counter-Screen for Estrogenic Activity. Estrogenic activity was monitored by co-transfection of a reporter plasmid containing a multimerized E-box 5′ of a minimal promoter fused to the Firefly luciferase gene with wild-type E47 or E47MER (Kiselyuk, et al. (2010) J. Biomol. Screen 15(6):663-70). HeLa cells were transfected using polyethylenimine, 0.2 μg 4RTK-Luc plasmid and either 0.3 μg of human E47, E47MER or pMSCVhph vector in 50 μl of serum-free Dulbecco's modification of Eagle medium per well. Transfections included Renilla luciferase (pRL-TK) plasmid as a control for transfection efficacy. Transfection conditions were as described in the PPRE-Luc reporter assay of Kiselyuk, et al. ((2010) J. Biomol. Screen 15(6):663-70). Sixteen hours after transfection, culture media were changed and maintained for 48 hours with tamoxifen and/or compound or vehicle (DMSO). Cells were then lysed and assayed for luciferase activity using the Promega DUAL-LUCIFERASE® reporter assay kit (Promega Corp., Madison, WI), and luminescence was measured using the Veritas™ Microplate Luminometer (Turner Biosystems, Sunnyvale, CA). Data were normalized to Renilla luciferase (pRL-TK) and expressed as fold-change over vehicle alone.
(In general: Counterscreens check selectivity or assay interference.)

The nature of data set [1]: Bioavailability determination in male C57BL/6 mice. Particulars: IV 2 mg/kg vs oral or IP 30 mg/kg, route not stated in Table 3.
The next data set has as its system HepG2 cells. Nature of the data set: Lipid clearance (steatosis assay) in HepG2 cells. The data set is classed as cell-based. Particulars: HepG2 liver cells, 20 μM. As for the experimental part:
as §2

For `O=C(/C=C/c1ccc(O)cc1)NCCc1ccc(O)cc1` [p-coumaroyltyramine], the “HNF4α activation / bioactivity (screening result in words)” value (“HNF4α activation / bioactivity” for short) at HNF4α is reported as “able to act as HNF4α modulators”; on HNF4α (listed as N-trans-coumaroyltyramine), “additional reduction but not eradication of bioactivity”. Besides, the insulin gene expression result in the data set on insulin mRNA is given as “upregulated”. Besides, in the data set on HNF4α mRNA, the HNF4α gene expression entry is recorded as “upregulated”. Besides, the fat accumulation result in the data set with T6PNE cells is recorded as “inhibition of fat accumulation”.

Take `O=C(/C=C/c1ccc(O)cc1)NCC(O)c1ccc(O)cc1` (centres unmarked) [p-coumaroyloctopamine]: the insulin gene expression entry in the data set on insulin mRNA is “inactive”. Besides, the HNF4α gene expression entry in the data set with HNF4α mRNA was “inactive”.

As for `COc1cc(/C=C/C(=O)NCC(O)c2ccc(O)cc2)ccc1O` (stereo not drawn) [N-trans-feruloyloctopamine], on HNF4α, the “HNF4α activation / bioactivity” value is on record as “complete loss of HNF4α activation”. Besides, the insulin gene expression result with insulin mRNA is “inactive”. In addition, in the data set on HNF4α mRNA, the HNF4α gene expression entry was “inactive”.

For `COc1cc(/C=C/C(=O)NCCc2ccc(O)cc2)ccc1O` [N-trans-feruloyltyramine], the “pH Stability” value in “pH stability assessment” is recorded as “Stable”. Further, the estrogenic activity result with E47MER was “did not exhibit estrogenic activity”. The same compound displayed a bioavailability in data set [1] of approximately 7%. In addition, the “clearing of fats, Oil Red O staining” value in the data set with HepG2 cells was “capable of clearing harmful fats from the liver”. Also, the accumulation of fats entry in the data set on HepG2 cells (0.25 mM palmitate) is listed as “inhibited accumulation of fats”. Besides, the “HNF4α activation / bioactivity” value on HNF4α was “able to act as HNF4α modulators; also recorded: reduces but does not eradicate bioactivity”. Moreover, the insulin gene expression result with insulin mRNA is “upregulated”. In addition, in the data set with HNF4α mRNA, the HNF4α gene expression entry is “upregulated”. Further, in the data set on T6PNE cells (T6PNE cells pretreated 1 day with 0.06-0.25 mM palmitate, 15 μM compound, Nile Red, FIG. 6), the “lipid accumulation when palmitate was added prior to compound” value is “can reverse fat accumulation”. Moreover, the fat accumulation entry with T6PNE cells is listed as “inhibition of fat accumulation”.

As for `O=C(C=CCCc1ccccc1)CCc1ccccc1` [1,7-diphenylhept-4-en-3-one], the “HNF4α activation / bioactivity” value on HNF4α was “complete loss of bioactivity”.

In the case of `COc1cc(/C=C\C(=O)NCCc2ccc(O)cc2)ccc1O` [cis-feruloyltyramine], at HNF4α, the “HNF4α activation / bioactivity” value was “complete loss of HNF4α activation”. Further, the insulin gene expression result in the data set on insulin mRNA was “inactive”. Besides, in the data set on HNF4α mRNA, the HNF4α gene expression result is “inactive”.

With `Cc1ccc([N+](=O)[O-])cc1S(=O)(=O)n1c(C)nc2ccccc21` [BI-6015, reference compound], on HNF4α (BI-6015 0, 2.5, 5 μM with N-trans-caffeoyltyramine 0, 5, 10, 20 μM, FIG. 4), the “effect on N-trans-caffeoyltyramine-mediated increases in insulin expression” value is “inhibited”.

On to `O=C(/C=C/c1ccc(O)cc1)NCCc1ccc(O)c(O)c1` [N-coumaroyldopamine], for which, on HNF4α, the “HNF4α activation / bioactivity” value is on record as “complete loss of HNF4α activation”. For the same compound, in the data set with insulin mRNA, the insulin gene expression result is “inactive”. In the data set on HNF4α mRNA, the HNF4α gene expression result was “inactive”.

Turning to `O=C(C=Cc1ccccc1)NCCc1ccccc1` [N-2-phenylethylcinnamide], the “HNF4α activation / bioactivity” value at HNF4α is listed as “complete loss of bioactivity”.
